# Experimental data: patent US6737383B1, “Herbicidal oxadiazolidines” (priority 1999, dated 2004)
# What was measured:
# duck salad = assay: Test B flood test duck salad; format: in vivo, Heteranthera limosa
# Summary of the method: (§1)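 Each value is a visual injury score relative to controls, with 10 meaning complete control and 0 no effect. Evaluation took place twelve to sixteen days after the 2-leaf-stage plants were treated and kept in the greenhouse.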
# bamyardgrass = assay: Test B flood test barnyardgrass; format: in vivo, Echinochloa crus-galli
# Summary of the method: as §1
# surinam grass = assay: Test B pre/postemergence surinam grass; format: in vivo, Brachiaria decumbens
# Summary of the method: (§2)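 Test chemicals in a non-phytotoxic solvent mixture with surfactant were sprayed preemergence onto planted seeds and postemergence onto plants 2 to 18 cm tall (1- to 4-leaf stage). After twelve to sixteen days in a greenhouse, injury was visually rated against untreated controls from 0 (no effect) to 10 (complete control).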
# corn = assay: Test B pre/postemergence corn; format: in vivo, Zea mays
# Summary of the method: as §2
# cocklebur = assay: Test B pre/postemergence cocklebur; format: in vivo, Xanthium strumarium
# Summary of the method: as §2
# rice = assay: Test B flood test rice; format: in vivo, Oryza sativa
# Summary of the method: as §1
# soybean = assay: Test B pre/postemergence soybean; format: in vivo, Glycine max
# Summary of the method: as §2
# bedstraw = assay: Test B pre/postemergence bedstraw; format: in vivo, Galium aparine
# Summary of the method: as §2
# blackgrass = assay: Test B pre/postemergence blackgrass; format: in vivo, Alopecurus myosuroides
# Summary of the method: as §2
# smallflower flatsedge = assay: Test B flood test smallflower flatsedge; format: in vivo, Cyperus difformis
# Summary of the method: as §1
# wheat = assay: Test B pre/postemergence wheat; format: in vivo, Triticum aestivum
# Summary of the method: as §2
# crabgrass = assay: Test B pre/postemergence crabgrass; format: in vivo, Digitaria sanguinalis
# Summary of the method: as §2
# sugar beet = assay: Test B pre/postemergence sugar beet; format: in vivo, Beta vulgaris
# Summary of the method: as §2
# velvetleaf = assay: Test B pre/postemergence velvetleaf; format: in vivo, Abutilon theophrasti
# Summary of the method: as §2
# purple nutsedge = assay: Test B pre/postemergence purple nutsedge; format: in vivo, Cyperus rotundus
# Summary of the method: as §2
# wild oat = assay: Test B pre/postemergence wild oat; format: in vivo, Avena fatua
# Summary of the method: as §2
# [1] = Rate 62 g/ha, headed Pre-emergence (flood test species), scale 0 to 10 (0 no effect, 10 complete control)
# [2] = Rate 125 g/ha, Pre-emergence, flood test species, scale 0 to 10 where 0 is no effect and 10 is complete control
# [3] = Rate 250 g/ha, Pre-emergence, flood-test species, scale 0 to 10, 0 is no effect, 10 is complete control
# [4] = Rate 500 g/ha, Pre-emergence, flood test species, scale 0 to 10 (0 no effect, 10 complete control)
# [5] = Preemergence, Rate 62 g/ha, scale of 0 to 10 where 0 is no effect and 10 is complete control
# [6] = Preemergence, Rate 250 g/ha, scale of 0 to 10 where 0 is no effect and 10 is complete control
# [7] = Preemergence, Rate 500 g/ha, scale of 0 to 10 where 0 is no effect and 10 is complete control
# [8] = Rate 62 g/ha, Postemergence, scale of 0 to 10 where 0 is no effect and 10 is complete control
# [9] = Rate 125 g/ha, Postemergence, scale of 0 to 10 where 0 is no effect and 10 is complete control
# [10] = Rate 125 g/ha, Preemergence, scale of 0 to 10 where 0 is no effect and 10 is complete control
# [11] = Rate 250 g/ha, Postemergence, scale of 0 to 10 where 0 is no effect and 10 is complete control
# [12] = Rate 500 g/ha, Postemergence, scale 0 to 10, 0 no effect, 10 complete control
structure (smiles),measurement,setting,value
CC(C)N(C(=O)n1oc(=O)n(Cc2ccccn2)c1=O)c1ccc(F)cc1 [Compound 267],Ducksalad plant response rating,duck salad; [1],0
same,Ducksalad plant response rating,duck salad; [2],0
same,Ducksalad plant response rating,duck salad; [3],0
same,Ducksalad plant response rating,duck salad; [4],0
same,Barnyardgrass plant response rating,bamyardgrass; [1],0
same,Barnyardgrass plant response rating,bamyardgrass; [2],0
same,Barnyardgrass plant response rating,bamyardgrass; [3],0
same,Barnyardgrass plant response rating,bamyardgrass; [4],0
same,B. signalgrass plant response rating,surinam grass; [5],0
same,B. signalgrass plant response rating,surinam grass; [6],0
same,"Plant response rating, B. signalgrass",surinam grass; [7],9
same,B. signalgrass plant response rating,surinam grass; [8],0
same,B. signalgrass plant response rating,surinam grass; [9],0
same,B. signalgrass plant response rating,surinam grass; [10],0
same,"Plant response rating, B. signalgrass",surinam grass; [11],0
same,B. signalgrass plant response rating,surinam grass; [12],3
same,Corn plant response rating,corn; [5],0
same,Corn plant response rating,corn; [6],2
same,"Plant response rating, Corn",corn; [7],3
same,Corn plant response rating,corn; [8],0
same,Corn plant response rating,corn; [9],0
same,Corn plant response rating,corn; [10],0
same,"Plant response rating, Corn",corn; [11],0
same,Corn plant response rating,corn; [12],0
same,Cocklebur plant response rating,cocklebur; [5],0
same,Cocklebur plant response rating,cocklebur; [6],0
same,"Plant response rating, Cocklebur",cocklebur; [7],0
same,Cocklebur plant response rating,cocklebur; [8],0
same,Cocklebur plant response rating,cocklebur; [9],0
same,Cocklebur plant response rating,cocklebur; [10],0
same,"Plant response rating, Cocklebur",cocklebur; [11],1
same,Cocklebur plant response rating,cocklebur; [12],3
same,Rice plant response rating,rice; [1],0
same,Rice plant response rating,rice; [2],0
same,Rice plant response rating,rice; [3],0
same,Rice plant response rating,rice; [4],0
same,Soybean plant response rating,soybean; [5],0
same,Soybean plant response rating,soybean; [6],0
same,"Plant response rating, Soybean",soybean; [7],0
same,Soybean plant response rating,soybean; [9],2
same,Soybean plant response rating,soybean; [10],0
same,"Plant response rating, Soybean",soybean; [11],3
same,Soybean plant response rating,soybean; [12],6
same,Bedstraw plant response rating,bedstraw; [5],0
same,Bedstraw plant response rating,bedstraw; [6],0
same,"Plant response rating, Bedstraw",bedstraw; [7],2
same,Bedstraw plant response rating,bedstraw; [8],0
same,Bedstraw plant response rating,bedstraw; [9],0
same,Bedstraw plant response rating,bedstraw; [10],0
same,"Plant response rating, Bedstraw",bedstraw; [11],4
same,Bedstraw plant response rating,bedstraw; [12],7
same,Blackgrass plant response rating,blackgrass; [5],0
same,Blackgrass plant response rating,blackgrass; [6],2
same,"Plant response rating, Blackgrass",blackgrass; [7],8
same,Blackgrass plant response rating,blackgrass; [8],0
same,Blackgrass plant response rating,blackgrass; [9],0
same,Blackgrass plant response rating,blackgrass; [10],2
same,"Plant response rating, Blackgrass",blackgrass; [11],5
same,Blackgrass plant response rating,blackgrass; [12],8
same,S. Flatsedge plant response rating,smallflower flatsedge; [1],0
same,S. Flatsedge plant response rating,smallflower flatsedge; [2],0
same,S. Flatsedge plant response rating,smallflower flatsedge; [3],0
same,S. Flatsedge plant response rating,smallflower flatsedge; [4],0
same,Wheat plant response rating,wheat; [5],0
same,Wheat plant response rating,wheat; [6],0
same,"Plant response rating, Wheat",wheat; [7],0
same,Wheat plant response rating,wheat; [9],0
same,Wheat plant response rating,wheat; [10],0
same,"Plant response rating, Wheat",wheat; [11],3
same,Wheat plant response rating,wheat; [12],4
same,Crabgrass plant response rating,crabgrass; [5],2
same,Crabgrass plant response rating,crabgrass; [6],1
same,"Plant response rating, Crabgrass",crabgrass; [7],8
same,Crabgrass plant response rating,crabgrass; [9],0
same,Crabgrass plant response rating,crabgrass; [10],0
same,"Plant response rating, Crabgrass",crabgrass; [11],3
same,Crabgrass plant response rating,crabgrass; [12],7
same,Sugarbeets plant response rating,sugar beet; [5],0
same,Sugarbeets plant response rating,sugar beet; [6],0
same,"Plant response rating, Sugarbeets",sugar beet; [7],5
same,Sugarbeets plant response rating,sugar beet; [9],0
same,Sugarbeets plant response rating,sugar beet; [10],0
same,"Plant response rating, Sugarbeets",sugar beet; [11],2
same,Sugarbeets plant response rating,sugar beet; [12],4
same,Velvetleaf plant response rating,velvetleaf; [5],0
same,Velvetleaf plant response rating,velvetleaf; [6],0
same,"Plant response rating, Velvetleaf",velvetleaf; [7],3
same,Velvetleaf plant response rating,velvetleaf; [9],0
same,Velvetleaf plant response rating,velvetleaf; [10],0
same,"Plant response rating, Velvetleaf",velvetleaf; [11],1
same,Velvetleaf plant response rating,velvetleaf; [12],3
same,Nutsedge plant response rating,purple nutsedge; [5],0
same,Nutsedge plant response rating,purple nutsedge; [6],0
same,"Plant response rating, Nutsedge",purple nutsedge; [7],0
same,Nutsedge plant response rating,purple nutsedge; [9],0
same,Nutsedge plant response rating,purple nutsedge; [10],0
same,"Plant response rating, Nutsedge",purple nutsedge; [11],0
same,Nutsedge plant response rating,purple nutsedge; [12],4
same,Wild oats plant response rating,wild oat; [5],0
same,Wild oats plant response rating,wild oat; [6],0
same,"Plant response rating, Wild oats",wild oat; [7],2
same,Wild oats plant response rating,wild oat; [9],0
same,Wild oats plant response rating,wild oat; [10],0
same,"Plant response rating, Wild oats",wild oat; [11],2
same,Wild oats plant response rating,wild oat; [12],4
